Reference: patent US9540370B2, “Heterocyclic compounds and their use as glycogen synthase kinase-3 inhibitors” (ABBVIE DEUTSCHLAND GMBH & CO. KG, priority 2010, dated 2017)

Molecular target: T1, human Glycogen Synthase Kinase-3 beta (hGSK-3β) (Homo sapiens, UniProt P49841)
T1 construct: purchased Upstate cell signaling solutions
Experiment: Biochemical hGSK-3Beta assay (33P incorporation into biotinylated peptide substrate)
Settings: 10 μM ATP, 30 minutes at room temperature; read-out: GSK-3β IC50
Experimental: Methods—Biochemical hGSK-3Beta Assay
Compounds were tested for their ability to inhibit human Glycogen Synthase Kinase-3 beta (hGSK-3β) to phosphorylate biotin-[…](pS)EDEEE. Compounds were incubated with 0.5 μCi 33P-ATP, 10 μM ATP, 0.0125 U hGSK-3β (Upstate cell signaling solutions) and 1 μM substrate (biotin-[…](pS)EDEEE) in 50 mM HEPES, 10 mM MgCl2, […], 1 mM DTT, 0.0075% Triton, 2% DMSO (total volume 50 μL) for 30 minutes at room temperature. The incubation was stopped by addition of an equal volume of 100 mM EDTA, 4M NaCl. 80 μL of this mixture was added to streptavidin-coated Flash -plates (Perkin Elmer). Following a wash step, 33P incorporation was quantified on a MicroBeta microplate liquid scintillation counter (PerkinElmer). IC50s were determined by fitting a sigmoidal dose-response curve to the counts obtained at the different concentrations in GraphPad Prism.

T1 sequence (P49841 whole entry): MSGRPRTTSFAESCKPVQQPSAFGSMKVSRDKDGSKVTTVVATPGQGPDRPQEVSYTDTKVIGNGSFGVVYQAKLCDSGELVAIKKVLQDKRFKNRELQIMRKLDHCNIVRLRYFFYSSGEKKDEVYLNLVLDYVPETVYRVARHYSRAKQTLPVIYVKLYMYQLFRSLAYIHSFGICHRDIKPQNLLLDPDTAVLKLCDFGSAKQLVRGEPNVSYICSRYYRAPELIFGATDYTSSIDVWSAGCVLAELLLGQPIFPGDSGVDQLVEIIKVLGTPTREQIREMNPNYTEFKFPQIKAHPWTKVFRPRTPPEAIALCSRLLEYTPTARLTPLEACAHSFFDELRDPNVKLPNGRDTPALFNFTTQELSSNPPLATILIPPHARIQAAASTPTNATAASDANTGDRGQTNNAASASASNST

IC50, < 100 nM:
O=C(Nc1cccc(C2=CCOCC2)n1)Nc1ccnc2c(F)cccc12 [Example 1, 1-(6-(3,6-Dihydro-2H-pyran-4-yl)pyridin-2-yl)-3-(8-fluoroquinolin-4-yl)urea]
O=C(Nc1cccc(C2CCOCC2)n1)Nc1ccnc2c(F)cccc12 [Example 2, 1-(8-Fluoroquinolin-4-yl)-3-(6-(tetrahydro-2H-pyran-4-yl)pyridin-2-yl)urea]
O=C(Nc1cccc(C2=COCCC2)n1)Nc1ccnc2c(F)cccc12 [Example 3, 1-(6-(3,4-Dihydro-2H-pyran-5-yl)pyridin-2-yl)-3-(8-fluoroquinolin-4-yl)urea]
O=C(Nc1cccc(C(F)(F)F)n1)Nc1ccnc2ccc(Br)cc12 [Example 16, 1-(6-Bromo-quinolin-4-yl)-3-(6-trifluoromethyl-pyridin-2-yl)-urea]
O=C(Nc1cccc(C(F)(F)F)n1)Nc1ccnc2ccccc12 [Example 17, 1-(6-(Trifluoromethyl)pyridin-2-yl)-3-quinolin-4-yl-urea]
O=C(Nc1cccc(C(F)(F)F)n1)Nc1ccnc2c(F)cc(F)cc12 [Example 18, 1-(6,8-Difluoroquinolin-4-yl)-3-(6-trifluoromethyl-pyridin-2-yl)-urea]
O=C(Nc1cccc(C(F)(F)F)n1)Nc1ccnc2cc(Br)ccc12 [Example 19, 1-(7-Bromoquinolin-4-yl)-3-(6-trifluoromethyl-pyridin-2-yl)-urea]
COc1ccc2c(NC(=O)Nc3cccc(C(F)(F)F)n3)ccnc2c1 [Example 21, 1-(7-Methoxyquinolin-4-yl)-3-(6-trifluoromethyl-pyridin-2-yl)-urea]
N#Cc1cccc2c(NC(=O)Nc3cccc(C(F)(F)F)n3)ccnc12 [Example 23]
O=C(Nc1cccc(C(F)(F)F)n1)Nc1ccnc2c(I)cccc12 [Example 24, 1-(8-Iodoquinolin-4-yl)-3-(6-trifluoromethyl-pyridin-2-yl)-urea]
